Assay results reported in patent EP4711366A1, “PYRIMIDO MACROHETEROCYCLIC COMPOUND AS WEE1-YES DUAL-TARGET INHIBITOR AND USE THEREOF” (Mindrank AI Ltd., priority 2023, dated 2024).

Assays:
[1] = molecular target: Wee1 kinase (Homo sapiens, UniProt P30291); assay: WEE1 protein kinase inhibitory activity assay (ADP-GLO luminescence); format: biochemical; conditions: for IC50: Wee1 10 ng/well, ATP 10 µM, 3 h, 37 °C; for inhibition of the Weel target (in words): summary statement on the assay results
Protocol: The influence of the compound MRANK-106 of the present disclosure on the kinase activity of Weel was assessed using an in vitro kinase reaction system.
Table 2-1. Information about reagents and consumables
① 1× kinase buffer: A 5× kinase buffer was diluted with ddH2O to make a 1× kinase buffer. Table 2-3. The reagent components added to the 1× kinase buffer
③ 5× enzyme working solution: The optimization of the enzyme concentration had been completed in previous work, and the concentration of the reagent used in the screening is shown in Table 2-4. A 5× enzyme working solution of the enzyme was formulated using the 1× kinase buffer.
④ Compound formulation: A 10 mM mother liquor was formulated using DMSO, aliquoted, and then stored at -20 °C. Immediately before use, the mother liquor was thawed, diluted with DMSO to 1 mM, serially diluted 4-fold to 10 concentration points, and then 40-fold diluted with the 1× kinase buffer to give a 2.5× working solution. Table 2-4. The experimental conditions for the kinase activity assay
After the above reagents were formulated and equilibrated to room temperature, 4 µL of the diluted solution of the compound to be tested and 2 µL of the formulated enzyme solution were added to reaction wells. After shaking and centrifugation, the plate was incubated at room temperature for 15 min, and 4 µL of the ATP solution was then added to start a kinase reaction. After 3 h of reaction at 37 °C, 10 µL of an ADP-GLO reagent was added. After thorough mixing, the mixture was left to react at room temperature for 40 min, and 20 µL of a detection reagent was then added. After 30 min of reaction at room temperature, the luminescence signals were detected using a SpectraMax L instrument. Two independent duplicate assays were performed. The inhibition rate of each well was calculated based on all activity wells and background signal wells, with an average calculated for duplicate wells. Meanwhile, the inhibition rate was plotted using the professional graphing and analysis software PRISM 9.0, and the IC50 was calculated.
The inhibition rates of the compounds to be tested against the kinase activity of Wee1 were calculated using the following formula: Inhibition rate% = (Lumvehicle−Lumcompound)/(Lumvehicle−Lumblank) × 100% [formula] • Lumcompound: the luminescence of the sample treatment groups • Lumvehicle: the luminescence of the solvent control group • Lumblank: the luminescence of the blank group

[2] = molecular target: YES1 kinase (Homo sapiens, UniProt P07947); assay: YES1 protein kinase inhibitory activity assay (HTRF); format: biochemical; conditions: for IC50: HTRF, YES1 kinase, ATP 10 µM; for inhibition of the Yes target (in words): summary statement on the assay results
Protocol: In this experiment, the capability of the compound MRANK-106 of the present disclosure to inhibit kinase activity was assessed by an HTRF method using a drug screening system based on the YES1 kinase.
Table 3-1. Information about reagents and consumables
The enzymatic activity conditions and HTRF system formulation are shown in Table 3-3; the experimental conditions for the kinase activity assay are shown in Table 3-4. Table 3-3. HTRF system formulation
Table 3-4. The experimental conditions for the kinase activity assay
The test compound MRANK-106 was dissolved in DMSO, and the solution was vortexed and shaken for thorough mixing. The solution was serially diluted 3-fold with DMSO, with the initial concentration being 503 nM.
① A 2× ATP/substrate solution and a 2× kinase solution were formulated using a kinase reaction buffer.
② 50 nL of the compound dilution was transferred to a 384 detection plate using Echo 655. After centrifugation, 2.5 µL of a 2× kinase solution was added to the 384 detection plate. The plate was centrifuged at 1000 rpm for 1 min and incubated at 25 °C for 10 min.
② 2.5 µL of the 2× substrate and ATP solution was added to the 384 detection plate, and the plate was centrifuged at 1000 rpm for 1 min and incubated at 25 °C for 60 min.
④ A 2× XL665 and antibody detection reagent was formulated using a detection buffer.
⑤ 5 µL of a kinase detection reagent was added to the detection plate, and the plate was incubated at 25 °C. The plate was centrifuged at 1000 rpm for 1 min and incubated at 25 °C for 1 h.
⑥ The fluorescence signals at 620 nm (Cryptate) and 665 nm (XL665) were read using a BMG high-throughput drug-screening multi-mode microplate reader.
With the reading of the negative control set as an inhibition rate of 0% and the reading of the positive control set as an inhibition rate of 100%, the inhibition rate of each test solution was calculated using the following formula: [formula] • Datapositive control: the average of the positive control well values • Datanegative control : the average of the negative control well values
The IC50 (half maximal inhibitory concentration) of the compound was obtained using the following nonlinear fitting formulas: Y = Bottom + (Top−Bottom)/(1+10^(∧)((LogIC50−X)*HillSlope)) [formula] • X: the log value of the compound concentration • Y: the inhibition rate (% inh) of the compound
The Z' factor calculation equation: Z′ = 1−3(SDmin+SDmax)/(AVEmax−AVEmin) [formula] where: • Min is the positive control Data value, and Max is the negative control DMSO Data value; • SD stands for standard deviation, and AVE stands for average.

[3] = system: A427 cells; assay: Tumor cell proliferation inhibitory activity assay (CCK-8); format: cell-based, Human; conditions: for IC50: CCK-8; for activity in inhibiting cancer cell proliferation compared with reference compound Debio 0123 or ZN-c3: comparison in words
Protocol: Human lung cancer A427 cells are cancer cells reported to be sensitive to wee1 inhibitors. In this assay, the anti-cancer effects of the compounds of the present disclosure were verified by assessing the activity of the test substances in inhibiting A427 cell proliferation.
A427 cells were cultured according to the cell culture instructions, and cells in the logarithmic growth phase were collected, counted, resuspended in a complete culture medium, and inoculated into a 96-well plate at a cell concentration of 100 µL/3000 cells/well. The cells were incubated in an incubator at 37 °C with 100% relative humidity and 5% CO2 for 24 h.
The compounds to be tested were dissolved in DMSO and diluted 4-fold with a culture medium from 10 µM to 10 concentration gradients.
The culture medium waste was pipetted off, and 100 µL of the formulated culture medium of the compound to be tested was added to each well. The cells were incubated in an incubator at 37 °C with 100% relative humidity and 5% CO2 for 72 h.
The plate was taken out, the CCK-8 reagent was added at 10 µL/well, and the plate was incubated in an incubator at 37 °C for 2-4 h.
The cell growth inhibition rates of the drugs were calculated using the following formula: Cell growth inhibition rate% = [(Ac−As)/(Ac−Ab)] × 100% [formula] • As: the OA of the samples (cells + CCK-8 + compounds to be tested) • Ac: the OA of the normal growth cell control (cells + CCK-8) • Ab: the OA of the blank control (culture medium + CCK-8)
IC50 curve fitting was performed using the software Graphpad Prism 6 and the calculation formula XY-analysis/Nonlinear regression(curve fit)/Dose response-Inhibition/log(inhibitor)vs. response-Variable slope(four parameters), and the IC50 values were calculated. Table 1. Data analysis and results for some representative compounds

[4] = Homo sapiens, A-427, 72 h compound incubation

Wee1 kinase, sequence (P30291 whole entry): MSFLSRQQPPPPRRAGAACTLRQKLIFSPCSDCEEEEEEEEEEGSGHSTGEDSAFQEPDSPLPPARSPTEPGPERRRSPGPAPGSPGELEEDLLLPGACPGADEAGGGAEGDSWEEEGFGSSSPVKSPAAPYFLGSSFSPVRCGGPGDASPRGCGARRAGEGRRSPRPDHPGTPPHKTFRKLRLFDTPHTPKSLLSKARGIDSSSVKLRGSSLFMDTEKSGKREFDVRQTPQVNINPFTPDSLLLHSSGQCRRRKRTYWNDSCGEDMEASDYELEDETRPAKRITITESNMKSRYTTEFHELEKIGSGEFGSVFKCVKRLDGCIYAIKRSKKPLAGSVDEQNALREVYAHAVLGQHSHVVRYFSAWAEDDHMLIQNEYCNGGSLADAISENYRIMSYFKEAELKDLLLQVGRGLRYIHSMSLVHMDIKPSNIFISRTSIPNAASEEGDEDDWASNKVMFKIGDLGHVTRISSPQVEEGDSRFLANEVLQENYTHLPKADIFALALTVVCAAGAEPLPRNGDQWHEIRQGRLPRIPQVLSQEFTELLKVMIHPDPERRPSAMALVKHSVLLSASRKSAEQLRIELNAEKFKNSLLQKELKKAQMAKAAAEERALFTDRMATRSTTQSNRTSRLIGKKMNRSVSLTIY
YES1 kinase, sequence (P07947 whole entry): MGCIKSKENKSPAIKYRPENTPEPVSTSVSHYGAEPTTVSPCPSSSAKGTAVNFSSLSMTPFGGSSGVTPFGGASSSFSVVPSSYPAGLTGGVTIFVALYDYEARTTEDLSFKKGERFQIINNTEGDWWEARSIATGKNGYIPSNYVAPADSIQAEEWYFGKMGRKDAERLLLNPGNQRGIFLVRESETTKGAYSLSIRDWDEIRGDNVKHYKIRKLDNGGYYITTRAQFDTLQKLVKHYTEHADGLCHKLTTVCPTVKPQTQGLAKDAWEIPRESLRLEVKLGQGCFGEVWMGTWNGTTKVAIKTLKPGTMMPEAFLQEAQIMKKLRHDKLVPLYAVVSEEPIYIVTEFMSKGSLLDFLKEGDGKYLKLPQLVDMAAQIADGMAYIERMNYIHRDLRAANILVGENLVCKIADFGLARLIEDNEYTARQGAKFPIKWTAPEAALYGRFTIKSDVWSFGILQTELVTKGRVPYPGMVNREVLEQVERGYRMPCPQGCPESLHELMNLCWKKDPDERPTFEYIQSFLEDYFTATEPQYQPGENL

SMILES | IC50 [1] [nM] | inhibition of the Weel target (in words) [1] | IC50 [2] [nM] | inhibition of the Yes target (in words) [2] | IC50 [3, 4] [nM] | IC50 ([3]; 72 h compound incubation) [nM] | activity in inhibiting cancer cell proliferation compared with reference compound Debio 0123 or ZN-c3 [3]
Cc1cc(Nc2ncc3c(=O)n4n(c3n2)-c2cccc(n2)C(C)(O)CCC=CC4)ccc1OC1(C)CCN(C)CC1 (stereo not shown) [Compound 89, (Z)-2-((4-((1,4-dimethylpiperidin-4-yl)oxy)-3-methylphenyl)amino)-12-hydroxy-12-methyl-7,10,11,12-tetrahydro-5H-13,17-(azeno)pyrimido[4',5':3,4]pyrazolo[1,2-a][1,2]diazacyclotridecin-5-one] | 66.8 | strongly inhibited | 18.5 | strongly inhibited | 219 | – | –
Cc1cc(Nc2ncc3c(=O)n4n(c3n2)-c2cccc(n2)[C@](C)(O)CCCCC4)ccc1OC1CCN(C)CC1 [Compound 28, (R)-12-hydroxy-12-methyl-2-((3-methyl-4-((1-methylpiperidin-4-yl)oxy)phenyl)amino)-7,8,9,10,11,12-hexahydro-5H-13,17-(azeno)pyrimido[4',5':3,4]pyrazolo[1,2-a][1,2]diazacyclotridecin-5-one] | – | – | – | – | 152 | – | –
CCOP1(=O)CCN(c2ccc(Nc3ncc4c(=O)n5n(c4n3)-c3cccc(n3)C(C)(O)CCC=CC5)cc2C)CC1 (racemic) [Compound 182, (Z)-2-((4-(4-ethoxy-4-oxido-1,4-azaphosphinan-1-yl)-3-methylphenyl)amino)-12-hydroxy-12-methyl-7,10,11,12-tetrahydro-5H-13,17-(azeno)pyrimido[4',5':3,4]pyrazolo[1,2-a][1,2]diazacyclotridecin-5-one] | 30.1 | strongly inhibited | 19.9 | strongly inhibited | 160 | – | –
COc1cc(Nc2ncc3c(=O)n4n(c3n2)-c2cccc(n2)[C@](C)(O)CCC=CC4)ccc1OC1CCN(C)CC1 [Compound 143, (R,Z)-12-hydroxy-2-((3-methoxy-4-((1-methylpiperidin-4-yl)oxy)phenyl)amino)-12-methyl-7,10,11,12-tetrahydro-5H-13,17-(azeno)pyrimido[4',5':3,4]pyrazolo[1,2-a][1,2]diazacyclotridecin-5-one] | – | – | – | – | 65 | – | several times to several dozen times higher

Second part, led by results:

IC50 [1] [nM] | inhibition of the Weel target (in words) [1] | IC50 [2] [nM] | inhibition of the Yes target (in words) [2] | IC50 [3, 4] [nM] | IC50 ([3]; 72 h compound incubation) [nM] | SMILES | activity in inhibiting cancer cell proliferation compared with reference compound Debio 0123 or ZN-c3 [3]
16.4 | strongly inhibited | 18.8 | strongly inhibited | 78 | – | Cc1cc(Nc2ncc3c(=O)n4n(c3n2)-c2cccc(n2)C(C)(O)CCC=CC4)ccc1OC1CN(C)[C@H]1C (stereo partly drawn) [Compound 202, (Z)-2-((4-(((2S)-1,2-dimethylazetidin-3-yl)oxy)-3-methylphenyl)amino)-12-hydroxy-12-methyl-7,10,11,12-tetrahydro-5H-13,17-(azeno)pyrimido[4',5':3,4]pyrazolo[1,2-a][1,2]diazacyclotridecin-5-one] | several times to several dozen times higher
– | – | – | – | 144 | – | CN1CCN(Cc2ccc(Nc3ncc4c(=O)n5n(c4n3)-c3cccc(n3)C(C)(O)CCC=CC5)cc2)CC1 (stereo not shown) [Compound 214, (Z)-12-hydroxy-12-methyl-2-((4-((4-methylpiperazin-1-yl)methyl)phenyl)amino)-7,10,11,12-tetrahydro-5H-13,17-(azeno)pyrimido[4',5':3,4]pyrazolo[1,2-a][1,2]diazacyclotridecin-5-one] | –
– | – | – | – | – | 1610 | Cc1cc(Nc2ncc3c(n2)N(C)CN(c2c(Cl)cccc2Cl)C3=O)ccc1C1CCN(C)CC1 [Debio 0123, reference compound] | –
13.2 | – | – | – | 71 | – | Cc1cc(Nc2ncc3c(=O)n4n(c3n2)-c2cccc(n2)C(C)(O)CC/C=C\C4)ccc1NC1CCN(C)CC1 (single isomer, unassigned) [Compound 203A] | several times to several dozen times higher
6.5 | strongly inhibited | 5.8 | strongly inhibited | 15 | – | [2H]C1(Oc2ccc(Nc3ncc4c(=O)n5n(c4n3)-c3cccc(n3)[C@](C)(O)CCC=CC5)cc2C)CCN(C)CC1 (single isomer, unassigned) [Compound 172A] | several times to several dozen times higher
– | – | – | – | 163 | – | Cc1cc(Nc2ncc3c(=O)n4n(c3n2)-c2cccc(n2)[C@](C)(O)CCC=CC4)ccc1OC1CCN(C2COC2)CC1 [Compound 205, (R,Z)-12-hydroxy-12-methyl-2-((3-methyl-4-((1-(oxetan-3-yl)piperidin-4-yl)oxy)phenyl)amino)-7,10,11,12-tetrahydro-5H-13,17-(azeno)pyrimido[4',5':3,4]pyrazolo[1,2-a][1,2]diazacyclotridecin-5-one] | –
